Biological target: T1, MDM2 (RING protein) (Homo sapiens, UniProt Q00987)
T1 construct: MDM2 RING protein
Test: isothermal titration calorimetry (auto-iTC200, one-site fit)
Type: binding

T1 sequence (Q00987 whole entry): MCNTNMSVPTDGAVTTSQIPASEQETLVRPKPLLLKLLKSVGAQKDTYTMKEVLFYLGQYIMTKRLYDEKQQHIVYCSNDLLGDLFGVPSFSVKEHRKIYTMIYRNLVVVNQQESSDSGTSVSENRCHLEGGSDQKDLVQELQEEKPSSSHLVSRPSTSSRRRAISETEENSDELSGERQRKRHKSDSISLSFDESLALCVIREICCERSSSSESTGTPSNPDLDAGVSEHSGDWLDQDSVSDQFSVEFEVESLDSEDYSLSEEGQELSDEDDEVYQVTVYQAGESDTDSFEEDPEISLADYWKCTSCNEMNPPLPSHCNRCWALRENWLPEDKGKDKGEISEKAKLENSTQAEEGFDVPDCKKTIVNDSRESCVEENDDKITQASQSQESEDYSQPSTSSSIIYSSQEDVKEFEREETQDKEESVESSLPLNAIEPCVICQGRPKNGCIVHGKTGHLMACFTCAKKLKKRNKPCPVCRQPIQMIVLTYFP

Cc1cc2c(C(C)C)c(O)c(O)c(C=O)c2c(O)c1-c1c(C)cc2c(C(C)C)c(O)c(O)c(C=O)c2c1O [MX11, gossypol]
Kd: 5.21 µM

Reference: article PMC5343402, “Gossypol has anti-cancer effects by dual-targeting MDM2 and VEGF in human breast cancer” (Breast Cancer Research : BCR, 2017)
